These results are taken from ChEMBL document CHEMBL1772936, “Synthesis and biological activity of novel N6-substituted and 2,N6-disubstituted adenine ribo- and 3'-C-methyl-ribonucleosides as antitumor agents” (Eur J Med Chem, 2011).

In one assay the test system is MCF7. As to the kind of experiment: Antiproliferative activity against human MCF7 cells after 72 hrs by MTS assay. In kind it is functional. The note with it: MCF7, 72 h. For orientation: Tetrazolium assays rely on reduction of a dye to a coloured formazan, in cell work by metabolically active cells.
In the next assay the test system is HeLa. In words: Antiproliferative activity against human HeLa cells after 72 hrs by MTS assay. The assay is classed as functional.
A further assay deals with Caco-2. As to the kind of experiment: Antiproliferative activity against human Caco2 cells after 72 hrs by MTS assay. In kind it is functional. As to conditions: Caco-2, 72 h.
Assay [1] has as its system K562. In words: Antiproliferative activity against human K562 cells after 72 hrs by MTS assay. In kind it is functional. As to conditions: K562, 72 h.
The subject of a further assay is HT-29. As to the kind of experiment: Antiproliferative activity against human HT-29 cells after 72 hrs by MTS assay. In kind it is functional. The note with it: HT-29, 72 h.
In assay [2] the target is T1, Ribonucleoside-diphosphate reductase RR1 (Homo sapiens) (UniProt P23921+Q7LG56+P31350). As to the kind of experiment: (§1) Inhibition of human recombinant ribonucleotide reductase M2/M1 expressed in Escherichia coli BL21 (DE3) after 30 mins by [3H]CDP reduction method.
Assay [3] concerns the target T2, Ribonucleoside-diphosphate reductase RR1 (Homo sapiens, UniProt P23921+P31350+Q7LG56).
T2 sequence (P23921 whole entry): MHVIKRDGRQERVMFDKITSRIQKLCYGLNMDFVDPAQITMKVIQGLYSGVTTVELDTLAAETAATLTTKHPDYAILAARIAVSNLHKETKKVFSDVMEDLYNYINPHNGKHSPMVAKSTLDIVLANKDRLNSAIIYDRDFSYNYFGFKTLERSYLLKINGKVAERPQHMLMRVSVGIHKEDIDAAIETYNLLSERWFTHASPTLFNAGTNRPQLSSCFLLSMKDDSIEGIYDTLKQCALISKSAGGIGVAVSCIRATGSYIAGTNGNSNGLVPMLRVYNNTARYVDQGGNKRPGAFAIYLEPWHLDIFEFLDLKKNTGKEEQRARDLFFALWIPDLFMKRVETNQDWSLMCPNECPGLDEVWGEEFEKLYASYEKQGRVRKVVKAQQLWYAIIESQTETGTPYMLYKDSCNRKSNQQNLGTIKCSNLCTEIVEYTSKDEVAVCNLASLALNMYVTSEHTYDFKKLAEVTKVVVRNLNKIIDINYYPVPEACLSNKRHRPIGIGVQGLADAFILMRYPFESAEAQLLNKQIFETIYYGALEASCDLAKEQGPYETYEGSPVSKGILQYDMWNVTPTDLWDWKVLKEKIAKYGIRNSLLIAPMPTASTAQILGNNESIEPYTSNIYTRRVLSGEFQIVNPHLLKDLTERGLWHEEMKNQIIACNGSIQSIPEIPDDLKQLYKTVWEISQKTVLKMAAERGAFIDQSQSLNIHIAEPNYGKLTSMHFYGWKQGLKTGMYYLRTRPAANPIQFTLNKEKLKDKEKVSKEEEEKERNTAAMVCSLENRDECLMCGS
T2 sequence (Q7LG56 whole entry): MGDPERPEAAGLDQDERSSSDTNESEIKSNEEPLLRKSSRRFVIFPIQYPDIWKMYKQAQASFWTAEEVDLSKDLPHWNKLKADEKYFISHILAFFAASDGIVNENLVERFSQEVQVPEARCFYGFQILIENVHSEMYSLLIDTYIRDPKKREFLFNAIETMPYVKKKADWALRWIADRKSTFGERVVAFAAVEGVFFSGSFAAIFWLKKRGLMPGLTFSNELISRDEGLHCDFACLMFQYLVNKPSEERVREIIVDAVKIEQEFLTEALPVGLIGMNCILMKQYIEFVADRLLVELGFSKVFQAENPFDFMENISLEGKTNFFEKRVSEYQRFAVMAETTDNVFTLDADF
T2 sequence (P31350 whole entry): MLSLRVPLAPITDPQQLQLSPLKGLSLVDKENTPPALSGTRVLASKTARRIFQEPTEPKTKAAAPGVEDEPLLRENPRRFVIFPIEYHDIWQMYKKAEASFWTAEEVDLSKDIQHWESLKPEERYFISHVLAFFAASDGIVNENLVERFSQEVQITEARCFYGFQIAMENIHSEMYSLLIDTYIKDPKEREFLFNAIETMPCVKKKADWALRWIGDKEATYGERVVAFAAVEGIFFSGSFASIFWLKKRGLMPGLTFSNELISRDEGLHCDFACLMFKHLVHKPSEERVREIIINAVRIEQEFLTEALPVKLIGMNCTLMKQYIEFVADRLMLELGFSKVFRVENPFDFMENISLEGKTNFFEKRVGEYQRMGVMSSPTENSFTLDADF
The description is as §1.

Assay [4] deals with K562. As to the kind of experiment: Antiproliferative activity against doxorubicin-sensitive human K562 cells after 72 hrs by MTS assay. In kind it is functional. The note with it: K562, 72 h, read-out: GI100.
For assay [5], the target named is T1, Ribonucleoside-diphosphate reductase RR1 (Homo sapiens). As to the kind of experiment: (§2) Inhibition of human recombinant ribonucleotide reductase p53R2/M1 expressed in Escherichia coli BL21 (DE3) after 30 mins by [3H]CDP reduction method.
The target of assay [6] is T2, Ribonucleoside-diphosphate reductase RR1. Described as §2.

A value given as a limit tells only on which side of the number the result lay.

With `CON(C)c1ncnc2c1ncn2[C@@H]1O[C@H](CO)[C@@](C)(O)[C@H]1O`, the GI50 in the assay on MCF7, in the assay on HeLa, with Caco-2, in the assay with K562 [1] and with HT-29 was over 100 µM each time.

As to `CON(C)c1ncnc2c1ncn2[C@@H]1O[C@H](CO)[C@@H](O)[C@H]1O`, the GI50 in the assay on MCF7 is 46.8 µM; in the assay with HeLa, over 100 µM; in the assay on Caco-2, 84.1 µM; in the assay on K562 [1], over 100 µM; with HT-29, over 100 µM.

Regarding `Nc1nc2c(ncn2[C@@H]2O[C@H](CO)[C@@H](O)[C@H]2O)/c(=N\O)[nH]1`, the concentration for 50% growth inhibition (GI50) in the assay on MCF7 was over 100 µM; with HeLa it was over 100 µM; in the assay on Caco-2 it was over 100 µM; with K562 [1] it was 99 µM; in the assay with HT-29, over 100 µM.

`OC[C@H]1O[C@@H](n2cnc3/c(=N\O)[nH]cnc32)[C@H](O)[C@@H]1O`: the GI50 in the assay on MCF7 is over 100 µM; in the assay on HeLa, 3.4 µM; in the assay on Caco-2, over 100 µM; with K562 [1], 31 µM; in the assay with HT-29, 15 µM.

Consider `NNc1ncnc2c1ncn2[C@@H]1O[C@H](CO)[C@@H](O)[C@H]1O`, for which the inhibition result in assay [2] and in [5] was “Dose-dependent effect” in each case. Moreover, the IC50 was found to be 232 µM in [3] and 244 µM in assay [6]. Moreover, the TGI with K562 [4] amounted to 2 µM; in the assay with MCF7 (read-out: GI100), 6.1 µM; in the assay on HeLa (read-out: GI100), 5 µM; in the assay on Caco-2 (read-out: GI100) it was 5 µM; in the assay on HT-29 (read-out: GI100), 8.2 µM. For the same compound, the 50% growth inhibitory concentration (GI50) in the assay with MCF7 is 0.35 µM; with HeLa it was 0.52 µM; with Caco-2, 1.03 µM; with K562 [1], 0.61 µM; in the assay with HT-29, 1.44 µM.

For `CO/N=c1/[nH]cnc2c1ncn2[C@@H]1O[C@H](CO)[C@@H](O)[C@H]1O`, the 50% growth inhibitory concentration (GI50) with MCF7, in the assay with HeLa, with Caco-2, in the assay on K562 [1] and in the assay on HT-29 was over 100 µM each time.

As for `CONc1nc(N)nc2c1ncn2[C@@H]1O[C@H](CO)[C@@](C)(O)[C@H]1O`, the concentration for 50% growth inhibition (GI50) in the assay on MCF7, in the assay with HeLa, with Caco-2, in the assay with K562 [1] and in the assay on HT-29 was over 100 µM in each case.

In the case of `C[C@@]1(O)[C@@H](CO)O[C@@H](n2cnc3c(NO)nc(N)nc32)[C@@H]1O`, the concentration for 50% growth inhibition (GI50) is over 100 µM in the assay with MCF7; over 100 µM in the assay with HeLa; over 100 µM in the assay on Caco-2; 94 µM in the assay with K562 [1]; over 100 µM with HT-29.

As for `NNc1nc(NN)c2ncn([C@@H]3O[C@H](CO)[C@@H](O)[C@H]3O)c2n1`, the GI50 in the assay on MCF7 was determined as 20.7 µM; in the assay with HeLa, 7.9 µM; in the assay with Caco-2 it was 18.8 µM; with K562 [1], 30.7 µM; in the assay on HT-29, 61.4 µM.

Turning to `C[C@@]1(O)[C@@H](CO)O[C@@H](n2cnc3c(NO)ncnc32)[C@@H]1O`, the GI50 with MCF7, with HeLa, with Caco-2, with K562 [1] and in the assay with HT-29 was over 100 µM each time.

For the compound `CO/N=c1/[nH]c(N)nc2c1ncn2[C@@H]1O[C@H](CO)[C@@H](O)[C@H]1O`, the concentration for 50% growth inhibition (GI50) with MCF7 is 58 µM; in the assay on HeLa it was over 100 µM; in the assay with Caco-2, over 100 µM; in the assay on K562 [1], 49 µM; in the assay on HT-29, over 100 µM.

Regarding `NNc1nc(N)nc2c1ncn2[C@@H]1O[C@H](CO)[C@@H](O)[C@H]1O`, the concentration for 50% growth inhibition (GI50) with MCF7, in the assay with HeLa, in the assay on Caco-2, in the assay on K562 [1] and in the assay with HT-29 was over 100 µM in each case.

Take `NNc1ncnc2c1ncn2[C@H]1C[C@H](O)[C@@H](CO)O1`: the GI50 in the assay on MCF7 is 7.9 µM; with HeLa, 16 µM; in the assay on Caco-2, over 100 µM; in the assay on K562 [1] it was 12 µM; with HT-29, 18 µM.

As for `CON(C)c1nc(N)nc2c1ncn2[C@@H]1O[C@H](CO)[C@@](C)(O)[C@H]1O`, the GI50 in the assay on MCF7, with HeLa, in the assay on Caco-2, in the assay with K562 [1] and with HT-29 was over 100 µM throughout.

As for `C[C@@]1(O)[C@@H](CO)O[C@@H](n2cnc3c(N)ncnc32)[C@@H]1O`, the GI50 in the assay on MCF7 worked out at 22.4 µM; in the assay on HeLa, 23.3 µM; in the assay on Caco-2, 24.3 µM; in the assay with K562 [1] it was 9.4 µM; with HT-29, 26.1 µM.

For the compound `C[C@@]1(O)[C@@H](CO)O[C@@H](n2cnc3c(NN)nc(N)nc32)[C@@H]1O`, the GI50 in the assay on MCF7 was over 100 µM; with HeLa it was over 100 µM; in the assay with Caco-2, over 100 µM; with K562 [1], 91 µM; in the assay with HT-29 it was over 100 µM.

`NNc1nc(Cl)nc2c1ncn2[C@@H]1O[C@H](CO)[C@@H](O)[C@H]1O`: the GI50 is 86.2 µM in the assay with MCF7; 86 µM with HeLa; over 100 µM in the assay with Caco-2; 87.1 µM with K562 [1]; 86.2 µM in the assay on HT-29.

On to `CONc1ncnc2c1ncn2[C@@H]1O[C@H](CO)[C@@](C)(O)[C@H]1O`, for which the GI50 in the assay with MCF7, in the assay with HeLa, in the assay on Caco-2, with K562 [1] and in the assay on HT-29 was over 100 µM throughout.

As for `C[C@@]1(O)[C@@H](CO)O[C@@H](n2cnc3c(NN)ncnc32)[C@@H]1O`, the concentration for 50% growth inhibition (GI50) with MCF7, in the assay on HeLa, with Caco-2, in the assay on K562 [1] and with HT-29 was over 100 µM each time.

By GI50 is commonly meant the concentration giving 50% growth inhibition. Read a high GI50 as lower sensitivity of the cells. The term IC50 denotes the concentration at which inhibition is half-maximal.
